Tests used:
NF-κB = NF-κB luciferase reporter assay in A549/NF-κBLuc cells stimulated with IL-1β; type: cell-based, human; conditions: Homo sapiens, A549, A549/NF-κBLuc cells; compound added 1 hour before IL-1β, then 3 hours incubation; luciferase activity; read-out: NF-κB Inhibitory Activity (IC50)
Procedure, shortened: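 A549 cells stably carrying an NF-κB-driven luciferase reporter (pNFκB-Luc, G418-selected) pre-treated with compound for 1 h, then stimulated with IL-1β and incubated a further 3 h. Luciferase signal used to derive IC50 for NF-κB inhibition.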

[1] = tested on: carrageenin-induced foot edema in Wister male rat; assay: Acute inflammation model: carrageenin foot edema, compound given orally; type: in vivo; conditions: oral 100 mg/kg immediately after carrageenin; foot volume 2 hours after carrageenin; vs vehicle group
Method: The foot edma ratio was calculated according to the formula: (volume of foot after administration of carrageenin−volume of foot before administration)/volume of foot before administration×100, and shown by the average of foot edma ratio +/−SE.
On the footpad of the right hind leg of a 5-week-old Wister male rat, 0.1 ml of 1 w/v % λ-carrageenin (Sigma) was subcutaneously administered. Immediately thereafter, the compound of Example 112 or the compound of Example 157 each suspended in a vehicle (0.5% HPC) was orally administered to give a dose of 100 mg/kg. As a positive control, indomethacin (sigma) was orally administered to give a dose of 10 mg/kg. The foot edema ratio was calculated according to the formula: (volume of foot 2 hours after administration of carrageenin−volume of foot before administration)/volume of foot before administration×100, using a volume meter (TK-101, manufactured by Unicom). For the comparison between the vehicle group and the drug administered group, a variance test was performed by the F-test and thereafter, Student's t test was performed when the variance was equal, or Aspin-Welch's t test was performed when the variance was not equal.

[2] = tested on: GalN/LPS-stimulated C3H/HeN female mice; assay: In vivo sepsis model (GalN/LPS), compound given intraperitoneally; design: species or system mouse; conditions: i.p. 10, 30 or 100 mg/kg immediately after GalN/LPS, vs vehicle group
Method: A mixed solution of N-acetyl galactosamine (GalN, 20 mg, Sigma) and lipopolysaccharide (LPS, 5 μg, Sigma) was intraperitoneally administered as a stimulant to a 7-week-old C3H/HeN female mice and immediately thereafter, the compound of Example 112 suspended in a vehicle (0.5% hydroxypropyl cellulose (HPC), produced by Nippon Soda Co., Ltd.) was intraperitoneally administered to give a dose of 10 mg/kg, 30 mg/kg or 100 mg/kg. The TNF-α mRNA levels and the IL-1β mRNA levels in liver 60 minutes after the administration of stimulant each was measured by the real-time PCR method, and the TNF-α levels in plasma after 90 minutes were measured using the mouse TNF-α ELISA kit (Biosource). In the real-time PCR using PRISM7700 (PE Biosystems Japan) according to the protocol of PCR quantitative System (PE Biosystems Japan), mRNA was extracted from the liver and the TNF-α and IL-1β were detected with cDNA obtained by SuperScript Preamplification System (Lifetech Orient) as a template. For the detection, the following primers and TaqMan probes were used.
The RNA level in each sample was corrected by the expression level of glyceraldehyde 3-phosphate dehydrogenase (GAPDH) gene.
ELISA was performed according to the manual included in the kit. The comparison with the vehicle group was performed by the Dunnett's Multiple Comparison test using Stat-View (SAS Institute).

[3] = tested on: GalN/LPS-stimulated C3H/HeN female mice; assay: Sepsis model (GalN/LPS), compound given orally; type: in vivo, mouse; conditions: oral 10, 30 or 100 mg/kg 10 min before GalN/LPS, vs vehicle group; for TNF-α mRNA levels in liver: liver 60 min after stimulant, real-time PCR; for TNF-α levels in plasma: plasma 90 min after stimulant, ELISA
Method: Similarly to Experiment 2, a mixed solution of GalN (20 mg) and LPS (2 μg) was intraperitoneally administered as a stimulant to a 7-week-old C3H/HeN female mice. Ten minutes before that, the compound of Example 112 or the compound of Example 157 each suspended in a vehicle (0.5% HPC) was orally administered to give a dose of 10 mg/kg, 30 mg/kg or 100 mg/kg. The TNF-α mRNA levels in liver 60 minutes after the administration of stimulant were measured by the real-time PCR method, and the TNF-α levels in plasma after 90 minutes were measured using the mouse TNF-α ELISA kit. The comparison with the vehicle group was performed by the Dunnett's Multiple Comparison test using Stat-View.

[4] = liver 60 min after stimulant, real-time PCR

Row | IC50 (NF-κB) | melting point | Compound | acute inflammation (foot edema) caused by carrageenin [1] | IL-1β mRNA levels in liver [2, 4] | TNF-α mRNA levels in liver [2, 4] | TNF-α levels in plasma ([2]; plasma 90 min after stimulant, ELISA) | TNF-α mRNA levels in liver [3] | TNF-α levels in plasma [3]
1 | 7 µg/mL | 171 to 172.5 °C | COC1=C(OC)C(=O)C(Cc2ccc(O)c(C(=O)Nc3ccncc3)c2)=C(C)C1=O [Example 157, N-(Pyridin-4-yl)-5-(5,6-dimethoxy-3-methyl-1,4-benzoquinon-2-yl)methyl-2-hydroxybenzamide] | significantly suppressed | – | – | – | suppressed dose dependently | suppressed dose dependently
2 | 66 µg/mL | 130 to 132 °C | COC1=C(OC)C(=O)C(Cc2ccc(O)c(C(=O)Nc3cc(OC)ccc3OC)c2)=C(C)C1=O [Example 220, N-[5-(5,6-Dimethoxy-3-methyl-1,4-benzoquinon-2-yl)methyl-2-hydroxybenzoyl]-2,5-dimethoxyaniline] | – | – | – | – | – | –
3 | 11 µg/mL | 166 to 169 °C | COC1=C(OC)C(=O)C(Cc2ccc(O)c(C(=O)Nc3ccc(Cl)nc3)c2)=C(C)C1=O [Example 185, N-(6-Chloropyridin-3-yl)-5-(5,6-dimethoxy-3-methyl-1,4-benzoquinon-2-yl)methyl-2-hydroxybenzamide] | – | – | – | – | – | –

Further lines, the compound ahead of its results:

Row | Compound | IC50 (NF-κB) | melting point | acute inflammation (foot edema) caused by carrageenin [1] | IL-1β mRNA levels in liver [2, 4] | TNF-α mRNA levels in liver [2, 4] | TNF-α levels in plasma ([2]; plasma 90 min after stimulant, ELISA) | TNF-α mRNA levels in liver [3] | TNF-α levels in plasma [3]
4 | COC1=C(OC)C(=O)C(Cc2ccc(OC(C)=O)c(C(=O)Nc3ccc(C(F)(F)F)cc3)c2)=C(C)C1=O [Example 112, N-[5-(5,6-Dimethoxy-3-methyl-1,4-benzoquinon-2-yl)methyl-2-acetoxybenzoyl]-4-trifluoromethylaniline] | 14 µM | – | significantly suppressed | suppressed | suppressed dose dependently | suppressed dose dependently | suppressed dose dependently | suppressed dose dependently
5 | COC1=C(OC)C(=O)C(Cc2ccc(O)c(C(=O)Nc3ccnc(Cl)c3)c2)=C(C)C1=O [Example 227, N-(2-Chloropyridin-4-yl)-5-(5,6-dimethoxy-3-methyl-1,4-benzoquinon-2-yl)methyl-2-hydroxybenzamide] | 20 µg/mL | 142 to 144 °C | – | – | – | – | – | –
6 | COC1=C(OC)C(=O)C(Cc2ccc(O)c(C(=O)Nc3cc(OC)ncn3)c2)=C(C)C1=O [Example 229, N-(6-Methoxypyrimidin-4-yl)-5-(5,6-dimethoxy-3-methyl-1,4-benzoquinon-2-yl)methyl-2-hydroxybenzamide] | 59 µg/mL | 209.5 to 211.5 °C | – | – | – | – | – | –
7 | COC1=C(OC)C(=O)C(Cc2ccc(O)c(C(=O)Nc3cccnc3)c2)=C(C)C1=O.CS(=O)(=O)O [Example 202, N-(Pyridin-3-yl)-5-(5,6-dimethoxy-3-methyl-1,4-benzoquinon-2-yl)methyl-2-hydroxybenzamide (methanesulfonate)] | 20 µg/mL | 149.5 to 152 °C | – | – | – | – | – | –
8 | COC1=C(OC)C(=O)C(Cc2ccc(O)c(C(=O)Nc3cccnc3)c2)=C(C)C1=O [Example 158, N-(Pyridin-3-yl)-5-(5,6-dimethoxy-3-methyl-1,4-benzoquinon-2-yl)methyl-2-hydroxybenzamide] | 7 µg/mL | 119 to 122.5 °C | – | – | – | – | – | –
